Results published in patent publication US4883661A, “Use of arginine as an lymphokine synergist” (priority 1987, dated 1989).

Key:
C1300 neuroblastoma [1] = test: Tumor growth and survival, C1300 neuroblastoma in protein malnourished mice; assay type: in vivo, A/J mice; conditions: for median survival: ARG p<0.001 compared with GLY and LPD (LPD, 29 days)
Experimental: (§3) The effects of supplemental arginine (ARG) in the malnourished tumor bearing host were evaluated. […] Body weight, tumor weight and carcass weight were measured weekly and duration of survival was recorded. On day 10, specific T cell cytotoxicity was measured; concanavalin A (con A) stimulation of thymocytes and mixed lymphocyte tumor cell culture (MLTC) were measured on days 14 (d14) and 21(d21) (n=5/group).

[2] = Body weight and carcass weight, C1300 tumor bearing protein malnourished mice; assay type: in vivo, A/J mice; conditions: for total body weight and mean carcass weight: compared with LPD mice
Experimental: as §3

C1300 neuroblastoma [3] = conditions: mouse, in vivo
Experimental: Body weight, tumor weight and carcass weight were measured weekly and duration of survival was recorded. On day 10, specific T cell cytotoxicity was measured; concanavalin A (con A) stimulation of thymocytes and mixed lymphocyte tumor cell culture (MLTC) were measured on days 14 (d14) and 21(d21) (n=5/group).

IL-2 receptor = IL-2 receptor expression (M7/20) on purified splenic T cells after con A activation, indirect immunofluorescence; assay type: in vivo, CBA/J mice; conditions: for IL 2 (24 hr) receptor expression (% expression): 24 hours after con A activation; for IL 2 (24 hr) receptor expression (% expression) / IL 2 (48 hr) receptor expression (% expression): * p,0.05 (ARG); for IL 2 (48 hr) receptor expression (% expression): 48 hours after con A activation
Experimental: (§1) The effect of arginine on IL-2 dependent responses is shown by the following example. The effect of arginine on two IL-2 - dependent responses (T cell activation and cytotoxic T lymphocyte (CTL) development)and on interferon-influenced natural killer (NK) cell activity was evaluated.
(§2) CBA/J mice (n=100) received 1% arginine (ARG) dietary supplementation o isonitrogenous glycine (GLY) for al least 10 days. CTL development was determined by sensitizing mice to BALB/C spleen cell alloantigen in vivo (×3 immunizations) and measuring cytotoxicity against allolymphoblasts as targets. Basal and Poly I:C - induced NK activity was measured against YAC targets. Using indirect immunofluorescence, IL-2 receptor expression (M7/20) on purified splenic T cells was determined 24 and 48 hours after con A activation. Results are presented in Table 1 wherein data are expressed as % toxicity in a 4 hour Chromium release assay (CTL and NK cells only) and % expression (IL-2). (*p,0.05 Student's T test)

allolymphoblasts = test: Cytotoxic T lymphocyte (CTL) development, 4 hour chromium release, mice on dietary supplement; assay type: in vivo, CBA/J mice; conditions: for CTL cytotoxicity (% toxicity): 1% dietary supplementation at least 10 days, 4 hour chromium release assay, * p,0.05 Student's t test (ARG)
Experimental: as §1, §2

C1300 neuroblastoma [4] = test: Mixed lymphocyte tumor cell culture (MLTC), C1300 tumor bearing protein malnourished mice; assay type: in vivo, A/J mice; conditions: for MLTC Stimulation Index (d21): day 21
Experimental: as §3

YAC targets = test: Basal and Poly I:C-induced natural killer (NK) activity, 4 hour chromium release, mice on dietary supplement; assay type: in vivo, CBA/J mice; conditions: for NK(Induced) activity (% toxicity): Poly I:C-induced, * p,0.05 (ARG); for NK(Induced) activity (% toxicity) / NK(basal) activity (% toxicity): 1% dietary supplementation at least 10 days, YAC targets, 4 hour chromium release
Experimental: as §1, §2

thymocytes = test: Concanavalin A stimulation of thymocytes, C1300 tumor bearing protein malnourished mice; assay type: in vivo, A/J mice; conditions: mean ± SD, * p<0.001, low protein diet + 1% supplement
Experimental: as §3

[5] = given prior to or concomitantly with amino acids, glycine or ammonia; rats; cited from earlier work
[6] = 1% in drinking water 6 days after the injury; cited from earlier work
[7] = 30 g daily in divided doses for 1 week, human; cited from earlier work
[8] = intraperitoneal, after 24 hour starvation, rats; cited from earlier work
[9] = tested on: peripheral blood lymphocyte; conditions: daily oral supplements (30 g), cited from earlier work
[10] = humans, mainly liver disease; cited from earlier work
lymphocytes = conditions: in vitro incubation in media with higher amounts of arginine; cited from earlier work
[11] = dietary supplement before and/or after wounding, rats; cited from earlier work
thymus = conditions: cited from earlier work
C3HBA tumors = conditions: supplemented after tumor excision, cited from earlier work
[12] = tested on: breast adenocarcinoma (C3HBA); conditions: rats; cited from earlier work
[13] = dietary arginine, young growing rat; cited from earlier work
[14] = mean ± SD, low protein diet + 1% supplement

In the case of `NCC(=O)O` [GLY, glycine, reference compound], the median survival (C1300 neuroblastoma [1]) is reported as 30 days, the “total body weight and mean carcass weight” value [2] is reported as “significantly preserved” and the Cytotoxicity (C1300 neuroblastoma [3]) is reported as 15 ± 1.4%. For the same compound, the “IL 2 (24 hr) receptor expression (% expression)” value (IL-2 receptor) was 30 ± 4%, the “IL 2 (48 hr) receptor expression (% expression)” value (IL-2 receptor) was 46 ± 45% and the “CTL cytotoxicity (% toxicity)” value (allolymphoblasts) was 54 ± 14%. The “MLTC Stimulation Index (d14)” value (C1300 neuroblastoma [4]; day 14, mean ± SD, * p<0.001, low protein diet + 1% supplement) was 3.3 ± 0.9, the “MLTC Stimulation Index (d21)” value (C1300 neuroblastoma [4]; [14]) was 2.5 ± 0.8 and the “NK(Induced) activity (% toxicity)” value (YAC targets) was 24 ± 14%. The “NK(basal) activity (% toxicity)” value (YAC targets) was 13 ± 4%, the “ConA Stimulation Index (d21)” value (thymocytes; day 21) was 24.9 ± 5 and the “ConA Stimulation Index” value (thymocytes; first ConA column (d14 per text)) was 38.4 ± 7.
For `NC(=O)NCCC[C@H](N)C(=O)O` [citrulline, reference compound], the “protection against toxic effects of hyperammonemia” value [5] is listed as “share the "detoxifying" effects of arginine”.
For `Cl.N=C(N)NCCC[C@H](N)C(=O)O` [arginine HCl], the recovery [6] is listed as 100%, the “weight loss after injury” value [6] is listed as “reversed the weight loss” and the untoward effects [7] is listed as “no untoward effects except for mild gastrointestinal discomfort”. For the same compound, the “LD50” value [8] was 3800 mg/kg, the “peripheral blood lymphocyte blastogenesis” value ([9]; healthy volunteers) was “increased” and the “time until blastogenesis effect is evident” value [9] was ≤ 3 days.
For `N=C(N)NCCC[C@H](N)C(=O)O` [ARG, arginine], the median survival (C1300 neuroblastoma [1]) was 38 days, the “median survival, in words” value (C1300 neuroblastoma [1]; p<0.001 compared with GLY and LPD mice) was “prolonged” and the tumor growth (C1300 neuroblastoma [1]; p<0.05, compared with GLY and LPD mice) was “retarded tumor growth”. For the same compound, the “total body weight and mean carcass weight” value [2] was “significantly preserved”, the host nutritional status ([2]; supplemental ARG) was “preserved” and the “therapeutic effect, elevated blood ammonia” value [10] was “ranged from excellent to minimal”. For the same compound, the “IL 2 (24 hr) receptor expression (% expression)” value (IL-2 receptor) was 52 ± 4%, the “IL 2 (48 hr) receptor expression (% expression)” value (IL-2 receptor) was 59 ± 6% and the “IL-2 receptor kinetics, in words” value (IL-2 receptor; supplemental arginine) was “enhanced”. The “CTL cytotoxicity (% toxicity)” value (allolymphoblasts) was 69 ± 15%, the “CTL activity, in words” value (allolymphoblasts; supplemental arginine) was “significantly augmented” and the “MLTC Stimulation Index (d21)” value (C1300 neuroblastoma [4]; [14]) was 2.2 ± 1.3. The “immune responses in tumor bearing protein malnourished mice” value (C1300 neuroblastoma [4]; supplemental ARG) was “augmented immune responses”, the “protection against toxic effects of hyperammonemia” value [5] was “abrogated” and the “blastogenic responses in vitro” value (lymphocytes) was “does not lead to greater blastogenic responses”. For the same compound, the “NK(Induced) activity (% toxicity)” value (YAC targets) was 43 ± 12%, the “NK(basal) activity (% toxicity)” value (YAC targets) was 19 ± 5% and the “inducible NK activity, in words” value (YAC targets; supplemental arginine) was “significantly augmented”. The wound healing [11] was “accelerated”, the “lymphocyte content of the thymic glands” value (thymus; in vivo) was “significant increases” and the “thymic involution with injury” value (thymus; injured) was “minimizes the thymic involution”. The “blastogenesis of the lymphocytes in response to mitogens” value (thymus; thymic) was “significant enhancement”, the thymic weight (thymus; uninjured rats and mice) was “increases thymic weight” and the “survival time of mice which subsequently developed tumors” value (C3HBA tumors) was “prolonged survival time”. The tumor recurrence rate (C3HBA tumors; without supplement 100% recurrence) was 30%, the tumor appearance [12] was “slowed tumor appearance” and the tumor incidence [12] was “reducing tumor incidence”. For the same compound, the growth [13] was “more rapid growth”.
